Measured values as given in PubChem BioAssay (NCI).
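Where inhibition never reached the appropriate level, the endpoint shown equals the highest concentration tested. Otherwise, values were interpolated linearly from a five-concentration, 48-hour dose response in 96-well plates. The concentration for full growth arrest is given as TGI.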

Experiments:
Experiment in all cases: NCI-60 cell line screen, 48 h
IGROV1 ovarian = tested on: IGROV1 ovarian
SF-539 CNS = tested on: SF-539 CNS
DU-145 prostate = tested on: DU-145 prostate
NCI-H460 lung = tested on: NCI-H460 lung
M14 melanoma = tested on: M14 melanoma
SR leukemia = tested on: SR leukemia
U251 CNS = tested on: U251 CNS
NCI-H23 lung = tested on: NCI-H23 lung
RXF 393 renal = tested on: RXF 393 renal
HCT-15 colon = tested on: HCT-15 colon
CCRF-CEM leukemia = tested on: CCRF-CEM leukemia
PC-3 prostate = tested on: PC-3 prostate
COLO 205 colon = tested on: COLO 205 colon
SW-620 colon = tested on: SW-620 colon
HOP-62 NSCLC = tested on: HOP-62 NSCLC
OVCAR-3 ovarian = tested on: OVCAR-3 ovarian
786-0 renal = tested on: 786-0 renal
MOLT-4 leukemia = tested on: MOLT-4 leukemia
A498 renal = tested on: A498 renal
SN12C renal = tested on: SN12C renal
CAKI-1 renal = tested on: CAKI-1 renal
TK-10 renal = tested on: TK-10 renal
HT29 colon = tested on: HT29 colon
MDA-MB-231 breast = tested on: MDA-MB-231 breast
NCI-H522 lung = tested on: NCI-H522 lung
OVCAR-8 ovarian = tested on: OVCAR-8 ovarian
SK-MEL-5 melanoma = tested on: SK-MEL-5 melanoma
SNB-75 CNS = tested on: SNB-75 CNS
SK-OV-3 ovarian = tested on: SK-OV-3 ovarian
HCT-116 colon = tested on: HCT-116 colon
ACHN renal = tested on: ACHN renal
BT-549 breast = tested on: BT-549 breast
MALME-3M melanoma = tested on: MALME-3M melanoma
UACC-257 melanoma = tested on: UACC-257 melanoma
UO-31 renal = tested on: UO-31 renal
LOX IMVI melanoma = tested on: LOX IMVI melanoma
SF-295 CNS = tested on: SF-295 CNS
SF-268 CNS = tested on: SF-268 CNS
HS 578T breast = tested on: HS 578T breast
OVCAR-5 ovarian = tested on: OVCAR-5 ovarian
SK-MEL-2 melanoma = tested on: SK-MEL-2 melanoma
MDA-N = tested on: MDA-N
EKVX NSCLC = tested on: EKVX NSCLC
UACC-62 melanoma = tested on: UACC-62 melanoma
RPMI-8226 leukemia = tested on: RPMI-8226 leukemia
K-562 leukemia = tested on: K-562 leukemia
MDA-MB-435 = tested on: MDA-MB-435
NCI/ADR-RES ovarian = tested on: NCI/ADR-RES ovarian
HL-60(TB) leukemia = tested on: HL-60(TB) leukemia
HOP-92 NSCLC = tested on: HOP-92 NSCLC
MCF7 breast = tested on: MCF7 breast
A549 NSCLC = tested on: A549 NSCLC
T-47D breast = tested on: T-47D breast
KM12 colon = tested on: KM12 colon
SK-MEL-28 melanoma = tested on: SK-MEL-28 melanoma
SNB-19 CNS = tested on: SNB-19 CNS
NCI-H226 lung = tested on: NCI-H226 lung
OVCAR-4 ovarian = tested on: OVCAR-4 ovarian
HCC-2998 colon = tested on: HCC-2998 colon

c1ccc2cc(OCC3CO3)c(OCC3CO3)cc2c1 (stereo unspecified)
TGI (IGROV1 ovarian): 11.1 µM | TGI (SF-539 CNS): 9.13 µM | TGI (DU-145 prostate): 16.7 µM | TGI (NCI-H460 lung): 15.8 µM | TGI (M14 melanoma): 13.3 µM | TGI (SR leukemia): 2.15 µM | TGI (U251 CNS): 13.9 µM | TGI (NCI-H23 lung): 12.8 µM | TGI (RXF 393 renal): 1.47 µM | TGI (HCT-15 colon): 16.6 µM | TGI (CCRF-CEM leukemia): 1.48 µM | TGI (PC-3 prostate): 32.1 µM | TGI (COLO 205 colon): 25.3 µM | TGI (SW-620 colon): 13.9 µM | TGI (HOP-62 NSCLC): 13.6 µM | TGI (OVCAR-3 ovarian): 27.9 µM | TGI (786-0 renal): 12.9 µM | TGI (MOLT-4 leukemia): 16.5 µM | TGI (A498 renal): 24.7 µM | TGI (SN12C renal): 15 µM | TGI (CAKI-1 renal): 37.6 µM | TGI (TK-10 renal): 49.2 µM | TGI (HT29 colon): 20.1 µM | TGI (MDA-MB-231 breast): 55.1 µM | TGI (NCI-H522 lung): 5.79 µM | TGI (OVCAR-8 ovarian): 12.2 µM | TGI (SK-MEL-5 melanoma): 21.2 µM | TGI (SNB-75 CNS): 18.6 µM | TGI (SK-OV-3 ovarian): 22.3 µM | TGI (HCT-116 colon): 3.11 µM | TGI (ACHN renal): 6.05 µM | TGI (BT-549 breast): 5.57 µM | TGI (MALME-3M melanoma): 36.5 µM | TGI (UACC-257 melanoma): 24.1 µM | TGI (UO-31 renal): 21.8 µM | TGI (LOX IMVI melanoma): 12 µM | TGI (SF-295 CNS): 8.59 µM | TGI (SF-268 CNS): 13.3 µM | TGI (HS 578T breast): 20.3 µM | TGI (OVCAR-5 ovarian): 23.4 µM | TGI (SK-MEL-2 melanoma): 29 µM | TGI (MDA-N): 22.9 µM | TGI (EKVX NSCLC): 24.1 µM | TGI (UACC-62 melanoma): 17.6 µM | TGI (RPMI-8226 leukemia): 9.8 µM | TGI (K-562 leukemia): 25.1 µM | TGI (MDA-MB-435): 21.7 µM | TGI (NCI/ADR-RES ovarian): 27.3 µM | TGI (HL-60(TB) leukemia): 45.3 µM | TGI (HOP-92 NSCLC): 23.5 µM | TGI (MCF7 breast): 10.1 µM | TGI (A549 NSCLC): 30 µM | TGI (T-47D breast): 45.4 µM | TGI (KM12 colon): 26.7 µM | TGI (SK-MEL-28 melanoma): 26.1 µM | TGI (SNB-19 CNS): 17.7 µM

CN(C)c1ccc(/C=C2\N=C(N/N=C/c3ccccc3)NC2=O)cc1
TGI (IGROV1 ovarian): > 100 µM | TGI (DU-145 prostate): > 100 µM | TGI (NCI-H460 lung): > 100 µM | TGI (M14 melanoma): > 100 µM | TGI (U251 CNS): > 100 µM | TGI (NCI-H23 lung): > 100 µM | TGI (RXF 393 renal): 70.4 µM | TGI (HCT-15 colon): > 100 µM | TGI (CCRF-CEM leukemia): > 100 µM | TGI (PC-3 prostate): > 100 µM | TGI (COLO 205 colon): > 100 µM | TGI (SW-620 colon): > 100 µM | TGI (HOP-62 NSCLC): > 100 µM | TGI (OVCAR-3 ovarian): > 100 µM | TGI (786-0 renal): > 100 µM | TGI (MOLT-4 leukemia): > 100 µM | TGI (A498 renal): > 100 µM | TGI (SN12C renal): > 100 µM | TGI (CAKI-1 renal): > 100 µM | TGI (TK-10 renal): > 100 µM | TGI (HT29 colon): > 100 µM | TGI (MDA-MB-231 breast): > 100 µM | TGI (NCI-H522 lung): > 100 µM | TGI (OVCAR-8 ovarian): 72.8 µM | TGI (SK-MEL-5 melanoma): > 100 µM | TGI (SNB-75 CNS): > 100 µM | TGI (SK-OV-3 ovarian): > 100 µM | TGI (HCT-116 colon): > 100 µM | TGI (ACHN renal): > 100 µM | TGI (BT-549 breast): > 100 µM | TGI (MALME-3M melanoma): > 100 µM | TGI (UACC-257 melanoma): > 100 µM | TGI (NCI-H226 lung): > 100 µM | TGI (UO-31 renal): > 100 µM | TGI (OVCAR-4 ovarian): > 100 µM | TGI (SF-295 CNS): > 100 µM | TGI (SF-268 CNS): > 100 µM | TGI (HS 578T breast): > 100 µM | TGI (OVCAR-5 ovarian): > 100 µM | TGI (SK-MEL-2 melanoma): > 100 µM | TGI (MDA-N): > 100 µM | TGI (EKVX NSCLC): > 100 µM | TGI (HCC-2998 colon): > 100 µM | TGI (UACC-62 melanoma): > 100 µM | TGI (RPMI-8226 leukemia): > 100 µM | TGI (MDA-MB-435): > 100 µM | TGI (NCI/ADR-RES ovarian): > 100 µM | TGI (HL-60(TB) leukemia): > 100 µM | TGI (HOP-92 NSCLC): 79.1 µM | TGI (MCF7 breast): > 100 µM | TGI (A549 NSCLC): > 100 µM | TGI (T-47D breast): > 100 µM | TGI (KM12 colon): > 100 µM | TGI (SK-MEL-28 melanoma): > 100 µM | TGI (SNB-19 CNS): > 100 µM
